Test results published in patent US20100010078A1, “METHODS OF TREATING ANDROGEN DEPENDENT PROSTATE CANCER BY ADMINISTERING AN ACTIVE PHARMACEUTICAL INGREDIENT BEING FISETIN, 3,3',4',7-TETRAHYDROXYFLAVONE OR A DERIVATIVE THEREOF, IN AN ORAL, TRANSDERMAL OR TOPICAL DOSAGE FORM” (priority 2008, published 2010).
Peptide text beside a SMILES is read from it. * marks the point of attachment. Cbz = O=C(OCc1ccccc1)*; CH2F = FC*

What was measured:
[1] = system: caspase-3 and -7; test: Immunofluorescence staining for active caspase-3 and -7; type: cell-based, human; settings: LNCaP, Z-VAD-FMK 40 μM for 2 h before fisetin 40 μM
Method: Immunofluorescence staining for active caspase-3 and -7. LNCaP cells were incubated with 40 μM concentration of the general caspase inhibitor Z-VAD-FMK for 2 h, followed by the addition of fisetin (40 μM; 48 h) and then harvested. ICT's Magic Red™ substrate-based MR-Caspase assay kit was used for the immunofluorescence staining for caspase-3 and -7. This kit utilizes the fluorophore, cresyl violet. As the 4 amino acid sequence, aspartylglutamylalanylaspartic acid (DEVD) is the optimal sequence for caspase -3 as well as -7, it was coupled to cresyl violet to create the caspase 3/7 substrate, MR-(DEVD)2. […] Following enzymatic hydrolysis at one or both of the aspartic acid amide linkage sites, the mono and non-substituted cresyl violet fluorophores fluoresce red and fluorescence photographs were obtained at 510-560 nm excitation and 610 nm emission.

[2] = system: caspase-3, -8 and -9; test: Western blot, active caspase-3, -8 and -9 in LNCaP cells; type: cell-based, human; settings: Z-VAD-FMK 40 μM for 2 h before fisetin (10-60 μM), compared to fisetin treatment
Method: Protein extraction and western blotting. Following the treatment of LNCaP cells with fisetin (10-60 μM; 48 h), the media was aspirated, the cells were washed with cold PBS (pH 7.4), and ice-cold lysis buffer (50 mM Tris-HCl, 150 mM NaCl, 1 mM EGTA, 1 mM EDTA, 20 mM NaF, 100 mM Na3VO4, 0.5% NP-40, 1% Triton X-100, 1 mM PMSF (pH 7.4)) with freshly added protease inhibitor cocktail (Protease Inhibitor Cocktail Set III, Calbiochem, La Jolla, Calif.) over ice for 30 min. The cells were scraped and the lysate was collected in a microfuge tube and passed through a needle to break up the cell aggregates. […]
For western blotting, 30-50 μg protein was resolved over 8-12% polyacrylamide gels and transferred to a nitrocellulose membrane. The blot was blocked in blocking buffer (5% nonfat dry milk/1% Tween 20; in 20 mM TBS, pH 7.6) for 1 hr at room temperature, incubated with appropriate monoclonal or polyclonal primary antibody in blocking buffer for 1.5 h to overnight at 4° C., followed by incubation with anti-mouse or anti-rabbit secondary antibody horseradish peroxidase conjugate obtained from Amersham Life Science Inc. and detected by chemiluminescence and autoradiography using XAR-5 film obtained from Eastman Kodak Co. (Rochester, N.Y., USA). […]

immunofluorescence staining of active caspase-3 & -7 [1]: significant decrease
SMILES: COC(=O)C[C@H](NC(=O)[C@H](C)NC(=O)[C@@H](NC(=O)OCc1ccccc1)C(C)C)C(=O)CF [Z-VAD-FMK, reference compound] (Cbz-Val-Ala-Asp(OMe)-CH2F)
protein expression of active caspase-3, -8 and -9 [2]: significant decrease
